# Reference: ChEMBL document CHEMBL1144479, “Synthesis and antimicrobial studies on novel chloro-fluorine containing hydroxy pyrazolines” (2007)
# Tested on: Escherichia coli; for IZ: test concentration or dose not given here
# Assay: microbe, parasite or virus in culture
# Assay type: functional, ATCC 25922
# Details: not given
row,Compound,inhibition zone (IZ) [mm]
1,COc1ccc(C2=NN(C(=O)COc3ccc(Cl)cc3Cl)C(O)(c3cc(F)c(Cl)cc3Cl)C2)cc1 (configuration not stated),16
2,COc1ccc(C2=NN(C(=O)COc3ccc(C)cc3)C(O)(c3cc(F)c(Cl)cc3Cl)C2)cc1OC (configuration not stated),16
3,COc1ccc(C2=NN(C(=O)COc3ccc(Cl)cc3Cl)C(O)(c3cc(F)c(Cl)cc3Cl)C2)cc1OC (configuration not stated),9
4,Cc1ccc(OCC(=O)N2N=C(c3ccc(Cl)cc3)CC2(O)c2cc(F)c(Cl)cc2Cl)cc1 (configuration not stated),17

# Same assay, conditions: Escherichia coli, ATCC 25922, 24 h
row,MIC [µg/mL],Compound
1,12.5,COc1ccc(C2=NN(C(=O)COc3ccc(Cl)cc3Cl)C(O)(c3cc(F)c(Cl)cc3Cl)C2)cc1 (configuration not stated)
2,12.5,COc1ccc(C2=NN(C(=O)COc3ccc(C)cc3)C(O)(c3cc(F)c(Cl)cc3Cl)C2)cc1OC (configuration not stated)
3,25,COc1ccc(C2=NN(C(=O)COc3ccc(Cl)cc3Cl)C(O)(c3cc(F)c(Cl)cc3Cl)C2)cc1OC (configuration not stated)
4,12.5,Cc1ccc(OCC(=O)N2N=C(c3ccc(Cl)cc3)CC2(O)c2cc(F)c(Cl)cc2Cl)cc1 (configuration not stated)

# Tested on: Talaromyces marneffei
# Assay: Antifungal activity against Penicillium marneffei after 3 to 4 days by serial plate dilution method; for IZ: test concentration or dose not given here
# Assay type: functional
# Details: not given
row,Compound,inhibition zone (IZ) [mm]
1,COc1ccc(C2=NN(C(=O)COc3ccc(Cl)cc3Cl)C(O)(c3cc(F)c(Cl)cc3Cl)C2)cc1 (configuration not stated),20
2,COc1ccc(C2=NN(C(=O)COc3ccc(Cl)cc3Cl)C(O)(c3cc(F)c(Cl)cc3Cl)C2)cc1OC (configuration not stated),12
3,Cc1ccc(OCC(=O)N2N=C(c3ccc(Cl)cc3)CC2(O)c2cc(F)c(Cl)cc2Cl)cc1 (configuration not stated),17

# Same assay, conditions: Talaromyces marneffei
row,MIC [µg/mL],Compound
1,6.25,COc1ccc(C2=NN(C(=O)COc3ccc(Cl)cc3Cl)C(O)(c3cc(F)c(Cl)cc3Cl)C2)cc1 (configuration not stated)
2,> 100,COc1ccc(C2=NN(C(=O)COc3ccc(C)cc3)C(O)(c3cc(F)c(Cl)cc3Cl)C2)cc1OC (configuration not stated)
3,25,COc1ccc(C2=NN(C(=O)COc3ccc(Cl)cc3Cl)C(O)(c3cc(F)c(Cl)cc3Cl)C2)cc1OC (configuration not stated)
4,6.25,Cc1ccc(OCC(=O)N2N=C(c3ccc(Cl)cc3)CC2(O)c2cc(F)c(Cl)cc2Cl)cc1 (configuration not stated)

# Tested on: Aspergillus fumigatus
# Assay: Antifungal activity against Aspergillus fumigatus NCIM no. 902 after 3 to 4 days by serial plate dilution method; for IZ: test concentration or dose not given here
# Assay type: functional
# Details: not given
row,Compound,inhibition zone (IZ) [mm]
1,COc1ccc(C2=NN(C(=O)COc3ccc(Cl)cc3Cl)C(O)(c3cc(F)c(Cl)cc3Cl)C2)cc1 (configuration not stated),19
2,COc1ccc(C2=NN(C(=O)COc3ccc(Cl)cc3Cl)C(O)(c3cc(F)c(Cl)cc3Cl)C2)cc1OC (configuration not stated),14
3,Cc1ccc(OCC(=O)N2N=C(c3ccc(Cl)cc3)CC2(O)c2cc(F)c(Cl)cc2Cl)cc1 (configuration not stated),19

# Same assay, conditions: Aspergillus fumigatus
row,MIC [µg/mL],Compound
1,6.25,COc1ccc(C2=NN(C(=O)COc3ccc(Cl)cc3Cl)C(O)(c3cc(F)c(Cl)cc3Cl)C2)cc1 (configuration not stated)
2,> 100,COc1ccc(C2=NN(C(=O)COc3ccc(C)cc3)C(O)(c3cc(F)c(Cl)cc3Cl)C2)cc1OC (configuration not stated)
3,12.5,COc1ccc(C2=NN(C(=O)COc3ccc(Cl)cc3Cl)C(O)(c3cc(F)c(Cl)cc3Cl)C2)cc1OC (configuration not stated)
4,6.25,Cc1ccc(OCC(=O)N2N=C(c3ccc(Cl)cc3)CC2(O)c2cc(F)c(Cl)cc2Cl)cc1 (configuration not stated)

# Tested on: Trichophyton benhamiae
# Assay: Antifungal activity against Trichophyton mentagrophytes after 3 to 4 days by serial plate dilution method; for IZ: test concentration or dose not given here
# Assay type: functional, Arthroderma benhamiae
# Details: not given
row,Compound,inhibition zone (IZ) [mm]
1,COc1ccc(C2=NN(C(=O)COc3ccc(Cl)cc3Cl)C(O)(c3cc(F)c(Cl)cc3Cl)C2)cc1 (configuration not stated),18
2,COc1ccc(C2=NN(C(=O)COc3ccc(C)cc3)C(O)(c3cc(F)c(Cl)cc3Cl)C2)cc1OC (configuration not stated),23
3,Cc1ccc(OCC(=O)N2N=C(c3ccc(Cl)cc3)CC2(O)c2cc(F)c(Cl)cc2Cl)cc1 (configuration not stated),20

# Same assay, conditions: Trichophyton benhamiae
row,MIC [µg/mL],Compound
1,6.25,COc1ccc(C2=NN(C(=O)COc3ccc(Cl)cc3Cl)C(O)(c3cc(F)c(Cl)cc3Cl)C2)cc1 (configuration not stated)
2,6.25,COc1ccc(C2=NN(C(=O)COc3ccc(C)cc3)C(O)(c3cc(F)c(Cl)cc3Cl)C2)cc1OC (configuration not stated)
3,> 100,COc1ccc(C2=NN(C(=O)COc3ccc(Cl)cc3Cl)C(O)(c3cc(F)c(Cl)cc3Cl)C2)cc1OC (configuration not stated)
4,6.25,Cc1ccc(OCC(=O)N2N=C(c3ccc(Cl)cc3)CC2(O)c2cc(F)c(Cl)cc2Cl)cc1 (configuration not stated)

# Tested on: Staphylococcus aureus; for IZ: test concentration or dose not given here
# Assay: microbe, parasite or virus in culture
# Assay type: functional, ATCC 25923
# Details: not given
row,Compound,inhibition zone (IZ) [mm]
1,COc1ccc(C2=NN(C(=O)COc3ccc(Cl)cc3Cl)C(O)(c3cc(F)c(Cl)cc3Cl)C2)cc1 (configuration not stated),16
2,Cc1ccc(OCC(=O)N2N=C(c3ccc(Cl)cc3)CC2(O)c2cc(F)c(Cl)cc2Cl)cc1 (configuration not stated),19

# Same assay, conditions: Staphylococcus aureus, ATCC 25923, 24 h
row,MIC [µg/mL],Compound
1,6.25,COc1ccc(C2=NN(C(=O)COc3ccc(Cl)cc3Cl)C(O)(c3cc(F)c(Cl)cc3Cl)C2)cc1 (configuration not stated)
2,> 100,COc1ccc(C2=NN(C(=O)COc3ccc(C)cc3)C(O)(c3cc(F)c(Cl)cc3Cl)C2)cc1OC (configuration not stated)
3,> 100,COc1ccc(C2=NN(C(=O)COc3ccc(Cl)cc3Cl)C(O)(c3cc(F)c(Cl)cc3Cl)C2)cc1OC (configuration not stated)
4,6.25,Cc1ccc(OCC(=O)N2N=C(c3ccc(Cl)cc3)CC2(O)c2cc(F)c(Cl)cc2Cl)cc1 (configuration not stated)

# Tested on: Candida albicans
# Assay: Antifungal activity against Candida albicans NCIM no. 300 after 3 to 4 days by serial plate dilution method
# Assay type: functional
# Details: not given
row,Compound,inhibition zone (IZ) [mm]
1,COc1ccc(C2=NN(C(=O)COc3ccc(Cl)cc3Cl)C(O)(c3cc(F)c(Cl)cc3Cl)C2)cc1 (configuration not stated),12.5
2,Cc1ccc(OCC(=O)N2N=C(c3ccc(Cl)cc3)CC2(O)c2cc(F)c(Cl)cc2Cl)cc1 (configuration not stated),19

# Same assay, conditions: Candida albicans
row,MIC [µg/mL],Compound
1,17,COc1ccc(C2=NN(C(=O)COc3ccc(Cl)cc3Cl)C(O)(c3cc(F)c(Cl)cc3Cl)C2)cc1 (configuration not stated)
2,> 100,COc1ccc(C2=NN(C(=O)COc3ccc(C)cc3)C(O)(c3cc(F)c(Cl)cc3Cl)C2)cc1OC (configuration not stated)
3,> 100,COc1ccc(C2=NN(C(=O)COc3ccc(Cl)cc3Cl)C(O)(c3cc(F)c(Cl)cc3Cl)C2)cc1OC (configuration not stated)
4,12.5,Cc1ccc(OCC(=O)N2N=C(c3ccc(Cl)cc3)CC2(O)c2cc(F)c(Cl)cc2Cl)cc1 (configuration not stated)

# Tested on: Streptococcus pyogenes
# Assay: Antibacterial activity against Streptococcus pyogenes after 24 hrs by disc diffusion method
# Assay type: functional
# Details: not given
row,Compound,inhibition zone (IZ) [mm]
1,COc1ccc(C2=NN(C(=O)COc3ccc(Cl)cc3Cl)C(O)(c3cc(F)c(Cl)cc3Cl)C2)cc1 (configuration not stated),19
2,Cc1ccc(OCC(=O)N2N=C(c3ccc(Cl)cc3)CC2(O)c2cc(F)c(Cl)cc2Cl)cc1 (configuration not stated),18

# Same assay, conditions: Streptococcus pyogenes, 24 h
row,MIC [µg/mL],Compound
1,12.5,COc1ccc(C2=NN(C(=O)COc3ccc(Cl)cc3Cl)C(O)(c3cc(F)c(Cl)cc3Cl)C2)cc1 (configuration not stated)
2,> 100,COc1ccc(C2=NN(C(=O)COc3ccc(C)cc3)C(O)(c3cc(F)c(Cl)cc3Cl)C2)cc1OC (configuration not stated)
3,> 100,COc1ccc(C2=NN(C(=O)COc3ccc(Cl)cc3Cl)C(O)(c3cc(F)c(Cl)cc3Cl)C2)cc1OC (configuration not stated)
4,12.5,Cc1ccc(OCC(=O)N2N=C(c3ccc(Cl)cc3)CC2(O)c2cc(F)c(Cl)cc2Cl)cc1 (configuration not stated)

# Tested on: Klebsiella pneumoniae; for IZ: test concentration or dose not given here
# Assay: Antibacterial activity against Klebsiella pneumoniae after 24 hrs by disc diffusion method
# Assay type: functional
# Details: not given
row,Compound,inhibition zone (IZ) [mm]
1,COc1ccc(C2=NN(C(=O)COc3ccc(Cl)cc3Cl)C(O)(c3cc(F)c(Cl)cc3Cl)C2)cc1 (configuration not stated),16
2,Cc1ccc(OCC(=O)N2N=C(c3ccc(Cl)cc3)CC2(O)c2cc(F)c(Cl)cc2Cl)cc1 (configuration not stated),18

# Same assay, conditions: Klebsiella pneumoniae, 24 h
row,MIC [µg/mL],Compound
1,12.5,COc1ccc(C2=NN(C(=O)COc3ccc(Cl)cc3Cl)C(O)(c3cc(F)c(Cl)cc3Cl)C2)cc1 (configuration not stated)
2,> 100,COc1ccc(C2=NN(C(=O)COc3ccc(C)cc3)C(O)(c3cc(F)c(Cl)cc3Cl)C2)cc1OC (configuration not stated)
3,> 100,COc1ccc(C2=NN(C(=O)COc3ccc(Cl)cc3Cl)C(O)(c3cc(F)c(Cl)cc3Cl)C2)cc1OC (configuration not stated)
4,6.25,Cc1ccc(OCC(=O)N2N=C(c3ccc(Cl)cc3)CC2(O)c2cc(F)c(Cl)cc2Cl)cc1 (configuration not stated)

# Tested on: Pseudomonas aeruginosa; for IZ: test concentration or dose not given here
# Assay: microbe, parasite or virus in culture
# Assay type: functional, ATCC 27853
# Details: not given
row,Compound,inhibition zone (IZ) [mm]
1,COc1ccc(C2=NN(C(=O)COc3ccc(Cl)cc3Cl)C(O)(c3cc(F)c(Cl)cc3Cl)C2)cc1 (configuration not stated),21
2,COc1ccc(C2=NN(C(=O)COc3ccc(C)cc3)C(O)(c3cc(F)c(Cl)cc3Cl)C2)cc1OC (configuration not stated),23
3,Cc1ccc(OCC(=O)N2N=C(c3ccc(Cl)cc3)CC2(O)c2cc(F)c(Cl)cc2Cl)cc1 (configuration not stated),24

# Same assay, conditions: Pseudomonas aeruginosa, ATCC 27853, 24 h
row,MIC [µg/mL],Compound
1,6.25,COc1ccc(C2=NN(C(=O)COc3ccc(Cl)cc3Cl)C(O)(c3cc(F)c(Cl)cc3Cl)C2)cc1 (configuration not stated)
2,6.25,COc1ccc(C2=NN(C(=O)COc3ccc(C)cc3)C(O)(c3cc(F)c(Cl)cc3Cl)C2)cc1OC (configuration not stated)
3,> 100,COc1ccc(C2=NN(C(=O)COc3ccc(Cl)cc3Cl)C(O)(c3cc(F)c(Cl)cc3Cl)C2)cc1OC (configuration not stated)
4,6.25,Cc1ccc(OCC(=O)N2N=C(c3ccc(Cl)cc3)CC2(O)c2cc(F)c(Cl)cc2Cl)cc1 (configuration not stated)

# Tested on: Aspergillus flavus
# Assay: Antifungal activity against Aspergillus flavus NCIM no. 524 after 3 to 4 days by serial plate dilution method; for IZ: test concentration or dose not given here
# Assay type: functional
# Details: not given
row,Compound,inhibition zone (IZ) [mm]
1,COc1ccc(C2=NN(C(=O)COc3ccc(Cl)cc3Cl)C(O)(c3cc(F)c(Cl)cc3Cl)C2)cc1 (configuration not stated),16
2,COc1ccc(C2=NN(C(=O)COc3ccc(C)cc3)C(O)(c3cc(F)c(Cl)cc3Cl)C2)cc1OC (configuration not stated),10
3,Cc1ccc(OCC(=O)N2N=C(c3ccc(Cl)cc3)CC2(O)c2cc(F)c(Cl)cc2Cl)cc1 (configuration not stated),15

# Same assay, conditions: Aspergillus flavus
row,MIC [µg/mL],Compound
1,12.5,COc1ccc(C2=NN(C(=O)COc3ccc(Cl)cc3Cl)C(O)(c3cc(F)c(Cl)cc3Cl)C2)cc1 (configuration not stated)
2,25,COc1ccc(C2=NN(C(=O)COc3ccc(C)cc3)C(O)(c3cc(F)c(Cl)cc3Cl)C2)cc1OC (configuration not stated)
3,> 100,COc1ccc(C2=NN(C(=O)COc3ccc(Cl)cc3Cl)C(O)(c3cc(F)c(Cl)cc3Cl)C2)cc1OC (configuration not stated)
4,12.5,Cc1ccc(OCC(=O)N2N=C(c3ccc(Cl)cc3)CC2(O)c2cc(F)c(Cl)cc2Cl)cc1 (configuration not stated)
